Reference: patent US20080280879A1, “SUBSTITUTED HETEROCYCLIC DERIVATIVES AND THEIR PHARMACEUTICAL USE AND COMPOSITIONS” (priority 2007, published 2008)
Values after ≈ are worked out from the molar mass of the structure shown.

Columns and labels:
Type in all cases: cell-based, Staphylococcus aureus
Staph aureus 1146 [1] = experiment: MIC, microtiter broth dilution (CLSI M7-A7), Assay 1, Table 12 column B, no serum; settings: for MIC: Staphylococcus aureus, 1146, Staph aureus 1146, Assay 1, no serum; for MIC, column B: Staph aureus 1146, Assay 1, no serum
Method in brief: (§1)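 MIC read as lowest drug level giving no macroscopically visible growth, μg/ml. Method: CLSI M7-A7 microtiter broth dilution, M100-S16 interpretation. Serum arm: inoculum in Mueller-Hinton Broth + 50% pooled inactivated human serum. Multiple runs → geometric mean.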

Staph aureus 1095 MRSA = experiment: MIC, microtiter broth dilution (CLSI M7-A7), Assay 1, Table 12 column A, no serum; settings: Assay 1, no serum; for MIC: Staphylococcus aureus, MRSA
Method in brief: as §1

Staph aureus 2812 = experiment: MIC, microtiter broth dilution (CLSI M7-A7), Assay 1, Table 12 column E, no serum; settings: for MIC: Staphylococcus aureus, 2812, Staph aureus 2812, Assay 1, no serum; for MIC, column E: Staph aureus 2812, Assay 1, no serum
Method in brief: as §1

Staph aureus 1146 [2] = experiment: MIC in Mueller-Hinton Broth with 50% pooled inactivated human serum, Assay 1, Table 12; settings: for MIC: Staphylococcus aureus, 1146, Staph aureus 1146, Assay 1, 50% human serum, read-out: MIC, column C; for MIC, column C: Staph aureus 1146, Assay 1, 50% human serum
Method in brief: as §1

Staph aureus 2811 = experiment: MIC, microtiter broth dilution (CLSI M7-A7), Assay 1, Table 12 column D, no serum; settings: for MIC: Staphylococcus aureus, 2811, Staph aureus 2811, Assay 1, no serum; for MIC, column D: Staph aureus 2811, Assay 1, no serum
Method in brief: as §1

Row | SMILES | MIC (Staph aureus 1146 [1]) [µg/mL] | MIC (Staph aureus 1095 MRSA) [µg/mL] | MIC (Staph aureus 2812) [µg/mL] | MIC (Staph aureus 1146 [2]) [µg/mL] | MIC (Staph aureus 2811) [µg/mL] | MIC, column B (Staph aureus 1146 [1]) | MIC, column A (Staph aureus 1095 MRSA) [µg/mL] | MIC, column E (Staph aureus 2812) | MIC, column C (Staph aureus 1146 [2]) [µg/mL] | MIC, column D (Staph aureus 2811)
1 | COc1ccc2nccc([C@@H](O)CC[C@@H]3CCN(C4CC(c5cccc(Cl)c5F)C4)C[C@@H]3C(=O)O)c2c1 (stereo partly drawn) [Example 64, (3R,4R)-1-[3-(3-chloro-2-fluorophenyl)cyclobutyl]-4-[(3S)-3-hydroxy-3-(6-methoxyquinolin-4-yl)propyl]piperidine-3-carboxylic acid] | ≤ 0.0625 | ≤ 0.0625 | ≤ 0.0625 | 8 (≈ 15.2 µM) | ≤ 0.0625 | – | – | – | – | –
2 | COc1ccc2ncc(F)c(C(O)CC[C@@H]3CCN(C4CC(c5cc(F)ccc5F)C4)C[C@@H]3C(=O)O)c2c1 (single isomer, unassigned) [Example 60] | – | – | – | – | – | <=.0625 μg/ml | 0.125 (≈ 0.236 µM) | <=.0625 μg/ml | 4 (≈ 7.57 µM) | <=.0625 μg/ml
3 | COc1ccc2ncc(Cl)c(CCCC3(C(=O)O)CCN(C4CC(c5ccccc5)C4)C3)c2c1 (stereo not drawn) [Example 86, 3-[3-(3-chloro-6-methoxyquinolin-4-yl)propyl]-1-(3-phenylcyclobutyl)pyrrolidine-3-carboxylic acid] | ≤ 0.0625 | ≤ 0.0625 | ≤ 0.0625 | 8 (≈ 16.7 µM) | ≤ 0.0625 | – | – | – | – | –
4 | COc1ccc2nccc([C@@H](O)CC[C@@H]3CCN(C4CC(c5c(F)cccc5F)C4C)C[C@@H]3C(=O)O)c2c1 (stereo partly drawn) [Example 66, (3R,4R)-1-[(2,3)-3-(2,6-difluorophenyl)-2-methylcyclobutyl]-4-[(3S)-3-hydroxy-3-(6-methoxyquinolin-4-yl)propyl]piperidine-3-carboxylic acid] | – | – | – | – | – | 0.125 µg/mL (≈ 0.238 µM) | 1 (≈ 1.91 µM) | 0.25 µg/mL (≈ 0.477 µM) | 4 (≈ 7.62 µM) | 0.125 µg/mL (≈ 0.238 µM)
5 | COc1ccc2nccc(C(O)CC[C@@H]3CCN(C4CC(CC5CCOC5)C4)C[C@@H]3C(=O)O)c2c1 (stereo partly drawn) [Example 51, (3R,4R)-4-[3-hydroxy-3-(6-methoxyquinolin-4-yl)propyl]-1-[3-(tetrahydrofuran-3-ylmethyl)cyclobutyl]piperidine-3-carboxylic acid] | 16 (≈ 33.2 µM) | 32 (≈ 66.3 µM) | 8 (≈ 16.6 µM) | 16 (≈ 33.2 µM) | 16 (≈ 33.2 µM) | – | – | – | – | –
6 | COc1ccc2nccc(C(O)CC[C@@H]3CCN(C4CC(c5nc(C(C)(C)C)no5)C4)C[C@@H]3C(=O)O)c2c1 (stereo partly drawn) [Example 164, (3R,4R)-1-[3-(3-tert-butyl-1,2,4-oxadiazol-5-yl)cyclobutyl]-4-[3-hydroxy-3-(6-methoxyquinolin-4-yl)propyl]piperidine-3-carboxylic acid] | 64 (≈ 122 µM) | > 64 | 64 (≈ 122 µM) | > 64 | 64 (≈ 122 µM) | – | – | – | – | –
7 | COc1ccc2nccc(C(O)CC[C@@H]3CCN(C4CC(C5CCCC5)C4)C[C@@H]3C(=O)O)c2c1 (stereo partly drawn) [Example 45, (3R,4R)-1-(3-cyclopentylcyclobutyl)-4-[3-hydroxy-3-(6-methoxyquinolin-4-yl)propyl]piperidine-3-carboxylic acid] | ≤ 0.0884 | ≤ 0.125 | ≤ 0.0884 | 0.353 (≈ 0.758 µM) | ≤ 0.0884 | – | – | – | – | –
8 | COc1ccc2nccc(C(O)CC[C@@H]3CCN(C4CC(Oc5ccccc5)C4)C[C@@H]3C(=O)O)c2c1 (stereo partly drawn) [Example 8, (3R,4R)-4-[3-hydroxy-3-(6-methoxyquinolin-4-yl)propyl]-1-(3-phenoxycyclobutyl)piperidine-3-carboxylic acid] | 0.25 (≈ 0.51 µM) | 0.25 (≈ 0.51 µM) | 0.25 (≈ 0.51 µM) | 8 (≈ 16.3 µM) | 0.125 (≈ 0.255 µM) | – | – | – | – | –
9 | COc1ccc2ncc(F)c(CCCC3(C(=O)O)CCN(C4CC(c5ccccc5)C4)CC3)c2c1 (stereo not drawn) [Example 23, 4-[3-(3-fluoro-6-methoxyquinolin-4-yl)propyl]-1-(3-phenylcyclobutyl)piperidine-4-carboxylic acid] | ≤ 0.0625 | ≤ 0.0625 | ≤ 0.0625 | > 64 | ≤ 0.0625 | – | – | – | – | –
10 | COc1ccc2nccc(C(O)CC[C@@H]3CCN(C4CC5CCCCC54)C[C@@H]3C(=O)O)c2c1 (stereo partly drawn) [Example 54, (3R,4R)-1-[(1,6)-bicyclo[4.2.0]oct-7-yl]-4-[3-hydroxy-3-(6-methoxyquinolin-4-yl)propyl] piperidine-3-carboxylic acid] | – | – | – | – | – | 64 µg/mL (≈ 141 µM) | >64 | >64 µg/mL | >64 | >64 µg/mL
11 | COc1ccc2ncc(Cl)c(CCCC3(C(=O)O)CCN(C4CC(c5ccccc5)C4)CC3)c2c1 (stereo not drawn) [Example 108, 4-[3-(3-chloro-6-methoxyquinolin-4-yl)propyl]-1-(3-phenylcyclobutyl)piperidine-4-carboxylic acid] | ≤ 0.0625 | ≤ 0.0625 | ≤ 0.0625 | 64 (≈ 130 µM) | ≤ 0.0625 | – | – | – | – | –
12 | COc1ccc2nccc(C(O)CC[C@@H]3CCN(C4CC(C)(c5ccccc5)C4)C[C@@H]3C(=O)O)c2c1 (stereo partly drawn) [Example 42, (3R,4R)-4-[3-hydroxy-3-(6-methoxyquinolin-4-yl)propyl]-1-(3-methyl-3-phenylcyclobutyl)piperidine-3-carboxylic acid] | > 64 | > 64 | 32 (≈ 65.5 µM) | 32 (≈ 65.5 µM) | > 64 | – | – | – | – | –

Second part, the molecule after the results:

Row | MIC (Staph aureus 1146 [1]) [µg/mL] | MIC (Staph aureus 1095 MRSA) [µg/mL] | MIC (Staph aureus 2812) [µg/mL] | MIC (Staph aureus 1146 [2]) [µg/mL] | MIC (Staph aureus 2811) [µg/mL] | MIC, column B (Staph aureus 1146 [1]) | MIC, column A (Staph aureus 1095 MRSA) [µg/mL] | MIC, column E (Staph aureus 2812) | MIC, column C (Staph aureus 1146 [2]) [µg/mL] | MIC, column D (Staph aureus 2811) | SMILES
13 | 1 (≈ 1.75 µM) | 8 (≈ 14 µM) | 2 (≈ 3.5 µM) | 64 (≈ 112 µM) | 1 (≈ 1.75 µM) | – | – | – | – | – | COc1ccc2nccc([C@@H](O)CC[C@@H]3CCN(C4CC(c5ccc(Br)cc5F)C4)C[C@@H]3C(=O)O)c2c1 (stereo partly drawn) [Example 196, (3R,4R)-1-[3-(4-bromo-2-fluorophenyl)cyclobutyl]-4-[(3S)-3-hydroxy-3-(6-methoxyquinolin-4-yl)propyl] piperidine-3-carboxylic acid]
14 | > 64 | > 64 | > 64 | > 64 | > 64 | – | – | – | – | – | CCCc1noc(C2CC(N3CC[C@@H](CCC(O)c4ccnc5ccc(OC)cc45)[C@@H](C(=O)O)C3)C2)n1 (stereo partly drawn) [Example 167, (3R,4R)-4-[3-hydroxy-3-(6-methoxyquinolin-4-yl)propyl]-1-[3-(3-propyl-1,2,4-oxadiazol-5-yl)cyclobutyl]piperidine-3-carboxylic acid]
15 | < 0.0625 | 0.125 (≈ 0.243 µM) | < 0.0625 | > 64 | < 0.0625 | – | – | – | – | – | COc1ccc2ncc(Cl)c(CCCC3(C(=O)O)CCN(C[C@@H]4C[C@H]4c4cc(F)ccc4F)C3)c2c1 (stereo partly drawn) [Example 198, 3-[3-(3-chloro-6-methoxyquinolin-4-yl)propyl]-1-{[(1R,2R)-2-(2,5-difluorophenyl)cyclopropyl]methyl} pyrrolidine-3-carboxylic acid]
16 | – | – | – | – | – | <0.0625 µg/mL | <0.0625 | 0.125 µg/mL (≈ 0.236 µM) | 1.00 (≈ 1.89 µM) | <0.0625 µg/mL | COc1ccc2ncc(F)c(C(O)CC[C@@H]3CCN(C4CC(c5c(F)cccc5F)C4)C[C@@H]3C(=O)O)c2n1 (stereo partly drawn) [Example 190, (3R,4R)-1-[3-(2,6-difluorophenyl)cyclobutyl]-4-[3-(3-fluoro-6-methoxy-1,5-naphthyridin-4-yl)-3-hydroxypropyl]piperidine-3-carboxylic acid]
17 | < 0.0625 | 0.25 (≈ 0.472 µM) | < 0.0625 | 2 (≈ 3.78 µM) | < 0.0625 | – | – | – | – | – | COc1ccc2ncc(F)c(C(O)CC[C@@H]3CCN(C4CC(c5cc(F)cc(F)c5)C4)C[C@@H]3C(=O)O)c2n1 (stereo partly drawn) [Example 222, (3R,4R)-1-[3-(3,5-difluorophenyl)cyclobutyl]-4-[3-(3-fluoro-6-methoxy-1,5-naphthyridin-4-yl)-3-hydroxypropyl]piperidine-3-carboxylic acid]
18 | – | – | – | – | – | <0.0625 µg/mL | <0.0625 | <0.0625 µg/mL | 2.00 (≈ 3.93 µM) | <0.0625 µg/mL | COc1ccc2ncc(Cl)c(C(O)CC[C@@H]3CCN(C4CC(c5ccccc5)C4)C[C@@H]3C(=O)O)c2c1 (stereo partly drawn) [Example 212, (3R,4R)-4-[3-(3-chloro-6-methoxyquinolin-4-yl)-3-hydroxypropyl]-1-(3-phenylcyclobutyl)piperidine-3-carboxylic acid]
19 | 8 (≈ 16.7 µM) | 16 (≈ 33.4 µM) | 8 (≈ 16.7 µM) | 16 (≈ 33.4 µM) | 8 (≈ 16.7 µM) | – | – | – | – | – | COc1ccc2nccc(C(O)CC[C@@H]3CCN(C4CC(c5cc(C)on5)C4)C[C@@H]3C(=O)O)c2c1 (stereo partly drawn) [Example 171, (3R,4R)-4-[3-Hydroxy-3-(6-methoxy-quinolin-4-yl)-propyl}-1-[3-(5-methyl-isoxazol-3-yl)-cyclobutyl]-piperidine-3-carboxylic acid]
20 | 2 (≈ 3.83 µM) | 4 (≈ 7.65 µM) | 2 (≈ 3.83 µM) | 32 (≈ 61.2 µM) | 1 (≈ 1.91 µM) | – | – | – | – | – | COc1ccc(F)c(C2CC(N3CC[C@@H](CC[C@H](O)c4ccnc5ccc(OC)cc45)[C@@H](C(=O)O)C3)C2)c1 (stereo partly drawn) [Example 172, (3R,4R)-1-[3-(2-fluoro-5-methoxyphenyl)cyclobutyl]-4-[(3S)-3-hydroxy-3-(6-methoxyquinolin-4-yl)propyl]piperidine-3-carboxylic acid]
21 | 32 (≈ 63.2 µM) | > 64 | 64 (≈ 126 µM) | > 64 | 32 (≈ 63.2 µM) | – | – | – | – | – | COc1ccc2nccc(C(O)CC[C@@H]3CCN(C4CC(c5nc(C6CC6)no5)C4)C[C@@H]3C(=O)O)c2c1 (stereo partly drawn) [Example 165, (3R,4R)-1-[3-(3-cyclopropyl-1,2,4-oxadiazol-5-yl)cyclobutyl]-4-[3-hydroxy-3-(6-methoxyquinolin-4-yl)propyl]piperidine-3-carboxylic acid]
